Source: patent US9540393B2, “Inhibitors of human immunodeficiency virus replication” (priority 2013, dated 2017)
Where two headings read alike, the source gives them in different places.

What was measured:
NL-RLuc virus = assay: Inhibition of HIV replication (NL-RLuc luciferase reporter virus in MT-2 cells); format: cell-based, human immunodeficiency virus (HIV); conditions: recombinant NL-Rluc virus infecting MT-2 cells, 5 days of incubation, luciferase readout; at least 2 experiments; serum condition not given (10% FBS, 15 mg/ml human serum albumin/10% FBS or 40% human serum/5% FBS)
[1] = rcm bond, DCE

SMILES: Cc1nc2cc3nn2c(c1[C@H](OC(C)(C)C)C(=O)O)-c1ccc2c(c1Cl)N(CC/C=C\Oc1cc(F)ccc1CNC3=O)CCO2 (single isomer, unassigned) [Example 3]
- EC50 (NL-RLuc virus): 42 nM

SMILES: Cc1nc2cc3nn2c(c1[C@H](OC(C)(C)C)C(=O)O)N1CCC(C)(CC1)OCCCCOc1ccccc1CC(O)CNC3=O (single isomer, unassigned) [Example 21]
- EC50 (NL-RLuc virus): 136 nM

SMILES: Cc1nc2cc3nn2c(c1[C@H](OC(C)(C)C)C(=O)O)-c1ccccc1C=CCOc1cc(F)ccc1CNC3=O
- ring closure, yield of all isomers ([1]; from C=CCOc1cc(F)ccc1CNC(=O)c1cc2nc(C)c([C@H](OC(C)(C)C)C(=O)OCC)c(-c3ccccc3C=C)n2n1, Hoveyda-Grubbs II, 37.0 mM, 83.0 °C, 16.0 h, 2 steps): 5%

SMILES: Cc1nc2cc3nn2c(c1[C@H](OC(C)(C)C)C(=O)O)-c1ccc2c(c1Cl)N(CC=CCOc1cc(F)ccc1CNC3=O)CCO2
- ring closure, yield of all isomers ([1]; from C=CCOc1cc(F)ccc1CNC(=O)c1cc2nc(C)c([C@H](OC(C)(C)C)C(=O)OCC)c(-c3ccc4c(c3Cl)N(CC=C)CCO4)n2n1, Hoveyda-Grubbs II, 57.0 mM, 83.0 °C, 3.0 h, 2 steps): 30.5%

SMILES: Cc1nc2cc3nn2c(c1[C@H](OC(C)(C)C)C(=O)O)N1CCC(C)(CC1)OCCCCOc1ccccc1CC(O)CNC3=O (some centres unmarked)
- ring closure, yield of all isomers ([1]; from C=CCOc1ccccc1CC(O)CNC(=O)c1cc2nc(C)c([C@H](OC(C)(C)C)C(=O)OCC)c(N3CCC(C)(OCC=C)CC3)n2n1, Hoveyda-Grubbs 2nd generation, 6.0 mM, 70.0 °C, 2.0 h, 3 steps): 51.1%

SMILES: Cc1nc2cc3nn2c(c1[C@H](OC(C)(C)C)C(=O)O)-c1ccc2c(c1Cl)N(C/C=C/COc1cc(F)ccc1CNC3=O)CCO2 (single isomer, unassigned) [Example 2]
- EC50 (NL-RLuc virus): 31 nM

SMILES: Cc1nc2cc3nn2c(c1[C@H](OC(C)(C)C)C(=O)O)-c1ccc2c(c1Cl)N(CC/C=C\Oc1cc(F)ccc1CNC3=O)CCO2 (single isomer, unassigned) [Example 5]
- EC50 (NL-RLuc virus): 12100 nM

SMILES: Cc1nc2cc3nn2c(c1[C@H](OC(C)(C)C)C(=O)O)N1CCC(C)(CC1)OCCCCOc1ccccc1CC(O)CNC3=O (single isomer, unassigned) [Example 22]
- EC50 (NL-RLuc virus): 57 nM

SMILES: CCOC(=O)[C@@H](OC(C)(C)C)c1c(C)nc2cc3nn2c1N1CCC(C)(CC1)OCCCCOc1ccccc1CC(=O)CNC3=O
- ring closure, yield of all isomers ([1]; from C=CCOc1ccccc1CC(O)CNC(=O)c1cc2nc(C)c([C@H](OC(C)(C)C)C(=O)OCC)c(N3CCC(C)(OCC=C)CC3)n2n1, Hoveyda-Grubbs 2nd generation, 7.4 mM, 70.0 °C, 2.0 h, 3 steps): 43.1%

SMILES: Cc1nc2cc3nn2c(c1[C@H](OC(C)(C)C)C(=O)O)-c1ccc2c(c1Cl)N(C/C=C/COc1cc(F)ccc1CNC3=O)CCO2 (single isomer, unassigned) [Example 4]
- EC50 (NL-RLuc virus): 1460 nM

SMILES: Cc1nc2cc3nn2c(c1[C@H](OC(C)(C)C)C(=O)O)-c1ccc2c(c1Cl)N(CC=CCCc1ccccc1CNC3=O)CCO2
- ring closure, yield of all isomers ([1]; from C=CCCc1ccccc1CNC(=O)c1cc2nc(C)c([C@H](OC(C)(C)C)C(=O)OCC)c(-c3ccc4c(c3Cl)N(CC=C)CCO4)n2n1, Hoveyda-Grubbs II, 32.0 mM, 83.0 °C, 3.0 h, 2 steps): 14.8%
